Literature values as cited in patent US12697342B2, “Non-surgical prevention of boar taint and aggressive behavior” (priority 2022, dated 2026).

System: Sertoli cells
Conditions: young male pigs

Compound | duration of Sertoli cell proliferation and testis size
N#Cc1ccc(C(c2ccc(C#N)cc2)n2cncn2)cc1 [Letrozole] | highly significant increase
C[C@]12CC[C@@H]3c4ccc(O)cc4C[C@@H](CCCCCCCCC[S+]([O-])CCCC(F)(F)C(F)(F)F)[C@H]3[C@@H]1CC[C@@H]2O (some centres unmarked) [ICI 182,780] | highly significant increase
